Measurements reported in US4413007A, “Pesticidal symmetrical N-substituted bis-carbamoyloximino disulfide compounds” (priority 1978, dated 1983).

How the values were obtained:
Format in all cases: in vivo
[1] = tested on: root-knot nematode (Meloidogyne incognita var. acrita); assay: Nematode Test; design: key: 1: severe galling; equal to untreated control; 2: moderate galling; 3: light galling; 4: very light galling; 5: no galling; settings: 10 ml of 500 ppm formulation per jar (approx. 180 cc soil), cucumber indicator crop, approx. three weeks
Method: (§1) Suspensions of the test compounds were prepared by dissolving one gram of compound in 50 milliliters of acetone in which had been dissolved 0.1 gram (10 percent of the weight of compound) of an alkylphenoxy polyethoxyethanol surfactant, as an emulsifying or dispersing agent. The resulting solution was mixed into 150 milliliters of water to give roughly 200 milliliters of a suspension containing the compound in finely divided form. The thus-prepared stock suspension contained 0.5 percent by weight of compound. The test concentrations in parts per million by weight employed in the tests described hereinbelow were obtained by appropriate dilutions of the stock suspension with water. The test procedures were as follows:
Infective migratory larvae of the root-knot nematode, (Meloidogyne incognita var. acrita) were reared in the greenhouse on roots of Rutgers variety tomato plant. Infected tomato plants were removed from the culture and the roots were chopped very finely. A small amount of inoculum from the roots was added to pint Mason jars containing approximately 180 cc of soil. The jars containing the inoculum and soil were capped and incubated for one week at room temperature. During this period eggs of the nematode hatched and the larvae forms migrated into the soil.
The test compounds were formulated by diluting the stock suspension with water to give a suspension containing 500 parts of test compound per million parts of final formulation. 10 milliliters of the test formulation was added to each of two jars for each dosage treated. As a control 10 milliliters of a water-acetone-emulsifier solution containing no test compound was also added to jars containing nematode larvae. The jars were capped and the contents thoroughly mixed on a kale mill for five minutes. The jars remained capped at room temperature for a period of 48 hours and the contents were then transferred to 3 inch pots. Subsequently, the pots were seeded to cucumber as an indicator crop and placed in the green house where they were cared for in the normal fashion for growing potted cucumber for approximately three weeks. These cucumber plants were then removed from the pots, the soil washed from the roots and the amount of galling visually rated.
The nematocidal toxicity has the following ratings;

[2] = tested on: two-spotted mite (Tetranychus urticae Koch); assay: Mite Foliage Spray Test; design: key: A: excellent control; B: partial control; C: no control; settings: 500 ppm, six days
Method: as §1
Adults and nymphal stages of the two-spotted mite (Tetranychus urticae Koch), reared on Tendergreen bean plants at 80±5 percent relative humidity, were the test organisms. Infested leaves from a stock culture were placed on the primary leaves of two bean plants six to eight inches in height, growing in a two-and-a-half inch clay pot. 150-200 Mites, a sufficient number for testing, transferred from the excised leaves to the fresh plants in a period of twenty four hours. Following the twenty four hour transfer period, the excised leaves were removed from the infested plants. The test compounds were formulated by diluting the stock suspension with water to give a suspension containing 500 parts of test compound per million parts of final formulation. The potted plants (one pot per compound) were placed on a revolving turntable and sprayed with 100-110 milliliters of test compound formulation by use of a DeVilbiss spray gun set at 40 psig. air pressure. This application, which lasted 25 seconds, was sufficient to wet the plants to run-off. As a control, 100-110 milliliters of a water solution containing acetone and emulsifier in the same concentrations as the test compound formulation, but containing no test compound, were also sprayed on infested plants. The sprayed plants were held at 80±5 percent relative humidity for six days, after which a mortality count of motile forms was made. Microscopic examination for motile forms was made on the leaves of the test plants. Any individual which was capable of locomotion upon prodding was considered living.
(§2) In these tests the pesticidal activity of the compounds against aphid, mite, Southern Armyworm, Bean Beetle and house fly was rated as follows: […]

[3] = tested on: house flies (Musca domestica, L.); assay: Fly Bait Test; design: key: A: excellent control; B: partial control; C: no control; settings: 500 ppm in sugar solution, twenty four hours
Method: as §1
Four to six day old adult house flies (Musca domestica, L.) reared according to the specifications of the Chemical Specialities Manufacturing Association (Blue Book, McNair-Dorland Co., N.Y. 1954; pages 243-244, 261) under controlled conditions of 80±5° F. and 50±5 percent relative humidity, were the test insects. The flies were immobilized by anesthetizing with carbon dioxide and twenty five immobilized individuals,males and females, were transferred to a cage consisting of a standard food strainer about five inches in diameter which was inverted over a wrapping-paper-covered surface. The test compounds were formulated by diluting the stock suspension with a 10 percent (by weight) sugar solution to give a suspension containing 500 parts of test compound per million parts of final formulation, by weight. Ten milliliters of the test formulation were added to a souffle cup containing a one-inch square of an absorbent cotton pad. This bait cup was introduced and centered on the blotting paper under the food strainer prior to admitting the anesthetized flies. The caged flies were allowed to feed on the bait for twenty four hours, at a temperature of 80±5° F. and the relative humidity of 50±5 percent.
as §2

[4] = tested on: bean aphid (Aphis fabae Scop.); assay: Bean Aphid Foliage Spray Test; design: key: A: excellent control; B: partial control; C: no control; settings: 500 ppm, 24 hour holding period
Method: as §1
Adults and nymphal stages of the bean aphid (Aphis fabae Scop.) reared on potted dwarf nasturtium plants at 65°-70° F. and 50-70 percent relative humidity, constituted the test insects. For testing purposes, the number of aphids per pot was standardized to 100-150 by trimming plants containing excess aphids.
The test compounds were formulated by diluting the stock suspension with water to give a suspension containing 500 parts of test compound per million parts of final formulation.
The potted plants (one pot per compound tested) infested with 100-150 aphids, were placed on a revolving turntable and sprayed with 100-110 milliliters of test compound formulation by use of a DeVilbiss spray gun set at 40 psig. air pressure. This application, which tested 25 seconds, was sufficient to wet the plants to run-off. As a control, 100-110 milliliters of a water-acetone-emulsifier solution containing no test compound were also sprayed on infested plants. After spraying, the pots were placed on their sides on a sheet of white standard mimeograph paper which had been previously ruled to facilitate counting. Temperature and humidity in the test room during the 24 hour holding period were 65°-70° F. and 50-70 percent, respectively. Aphids which fell onto the paper and were unable to remain standing after being uprighted were considered dead. Aphids remaining on the plants were observed closely for movement and those which were unable to move the length of the body upon stimulation by prodding were considered dead. Percent mortality was recorded for various concentration levels.
as §2

[5] = tested on: Mexican bean beetle (Epilachna varivestis, Muls.); assay: Mexican Bean Beetle Leaf Spray Test; design: key: A: excellent control; B: partial control; C: no control; settings: 500 ppm, three days
Method: as §1
Fourth instar larvae of the Mexican bean beetle (Epilachna varivestis, Muls.), reared on Tendergreen bean plants at a temperature of 80±5° F. and 50±5 percent relative humidity, were the test insects.
The test compounds were formulated by diluting the stock suspension with water to give a suspension containing 500 parts of test compound per million parts of final formulation. Potted Tendergreen bean plants of standard height and age were placed on a revolving turntable and sprayed with 100-110 milliliters of test compound formulation by use of a DeVilbiss spray gun set at 10 psig air pressure. The application, which lasted 25 seconds, was sufficient to wet plants to run-off. As a control, 100-110 milliliters of a water-acetone-emulsifier solution containing no test compound were also sprayed on infested plants. When dry, the paired leaves were separated and each was placed in a 9 centimeter Petri dish lined with moistened filter paper. Five randomly selected larvae were introduced into each dish, and the dishes were closed. The closed dishes were labeled and held at a temperature of 80±5° F. for three days. Although the larvae could easily consume the leaf within 24 to 48 hours, no more food was added. Larvae which were unable to move the length of the body, even upon stimulation, were considered dead.
as §2

[6] = tested on: southern armyworm (Prodenia eridania, (Cram.)); assay: Southern Armyworm Leaf Spray Test; design: key: A: excellent control; B: partial control; C: no control; settings: 500 ppm, three days
Method: as §1
Larvae of the southern armyworm (Prodenia eridania, (Cram.)), reared on Tendergreen bean plants at a temperature of 80±5° F. and a relative humidity of 50±5 percent, constituted the test insects.
The test compounds were formulated by diluting the stock suspension with water to give a suspension containing 500 parts of test compound per million parts of final formulation. Potted Tendergreen bean plants of standard height and age were placed on a revolving turntable and sprayed with 100-110 milliliters of test compound formulation by use of a DeVilbiss spray gun set at 10 psig air pressure. This application, which tested 25 seconds, was sufficient to wet plants to run-off. As a control, 100-110 milliliters of a water-acetone-emulsifier solution containing no test compound were also sprayed on infested plants. When dry, the paired leaves were separated and each one was placed in a 9 centimeter Petri dish lined with moistened filter paper. Five randomly selected larvae were introduced into each dish and the dishes were closed. The closed dishes were labeled and held at 80°-85° F. for three days. Although the larvae could easily consume the whole leaf within twenty-four hours, no more food was added. Larvae which were unable to move the length of the body, even upon stimulation by prodding, were considered dead. Percent mortality was recorded for various concentration levels.
as §2

| SMILES | Root-Knot Nematode galling rating [1] | 2-Spotted Mite control rating [2] | House-Fly control rating [3] | Bean Aphid control rating [4] | Mexican Bean Beetle control rating [5] | Southern Armyworm control rating [6] |
| --- | --- | --- | --- | --- | --- | --- |
| CSC(C)(C)C=NOC(=O)N(C)SSN(C)C(=O)ON=CC(C)(C)SC [N,N'-bis-[2-methylthio-2-methylpropionaldehyde O-(N-methylcarbamoyl)oxime]disulfide] | 5 | A | A | A | A | A |
| CC1OCSC1=NOC(=O)N(C)SSN(C)C(=O)ON=C1SCOC1C (stereo not drawn) [N,N'-bis-[5-Methyl-4-(O-(N-methylcarbamoyl)oximino)-1,3-oxathiolane]disulfide] | 1 | A | A | A | A | A |
